{
  "source": "patent US20080085563A1",
  "about": "“Detection of Gadolinium Chelates” (IDEXX LABORATORIES, INC., priority 2006, published 2008)",
  "key": {"[1]": {"details": "weak acid of low-pH buffering system; first value; cited from earlier work"}, "[2]": {"assay": "Masking of calcium interference in the gadolinium-arsenazo III assay", "text": "For instance, while calcium interference decreases exponentially with pH, it is not completely eliminated. In addition, the affinity of gadolinium for arsenazo dye decreases with pH, reducing both linearity and sensitivity of gadolinium response. In one aspect, the method of the invention allows for a pH window where the pH is high enough to allow highly efficient measurement of gadolinium chelate while reducing calcium interference by 99% relative to its maximal binding to Arsenazo at pH 6. Nonetheless, even within this optimally selective pH window, interference from both calcium and ferric ions is substantial. To remedy this persistent residual calcium interference, in another aspect of the invention, the compound HDMP, commonly used as an oral iron chelator for treatment of thalassemia (iron overload), is added to the reagent of the invention to effectively mask interference from both calcium and ferric ions without substantially reducing gadolinium assay response. In general, chelating agents, including EDTA, EGTA, TTHA, EDTPO, phenanthroline, and 8-hydroxyquinoline have a greater affinity for rare earth metals, such as gadolinium, than for calcium. […] This is obtained by subtracting the absorbance of each solution at 750 nm from its absorbance at 654 nm, reducing interference from wavelength-independent absorbance due to sample turbidity."}, "[3]": {"assay": "Masking of ferric ion interference in the gadolinium-arsenazo III assay", "details": "70 mM HDMP in reagent", "procedure": "In one aspect of the invention, the reagent includes HDMP. For example, a reagent of the invention can contain about 10 to about 2000 mM HDMP. In various aspects, the reagent contains about 10 to about 800 mM HDMP, and more particularly about 70 mM HDMP. […] Higher levels of HDMP may be selected to further remove calcium and iron interference based upon analytical sensitivity, matrix effects (e.g., diet, drugs, toxicants, […] icterus), solubility, sample quality (e.g., hemolysis) and storage stability. […] The ferric sulfate increased the net absorbance of the solution ([…] nm minus A750 nm). This amount of ferric ion is approximately 10 times the amount that would be contributed by 0.07 mL of a normal canine serum sample."}, "[4]": {"assay": "Effect of masking agent on gadolinium response in the arsenazo III assay", "details": "optimal amount of HDMP, pH 2.4", "text": "In general, chelating agents, including EDTA, EGTA, TTHA, EDTPO, phenanthroline, and 8-hydroxyquinoline have a greater affinity for rare earth metals, such as gadolinium, than for calcium. HDMP, however, is unusual in its ability to bind calcium preferentially over gadolinium. […] This essentially, although not completely, eliminates the interference by calcium with the method of the invention. […] In one aspect of the invention, the reagent includes HDMP. For example, a reagent of the invention can contain about 10 to about 2000 mM HDMP. In various aspects, the reagent contains about 10 to about 800 mM HDMP, and more particularly about 70 mM HDMP. […] Higher levels of HDMP may be selected to further remove calcium and iron interference based upon analytical sensitivity, matrix effects (e.g., diet, drugs, toxicants, […] icterus), solubility, sample quality (e.g., hemolysis) and storage stability. […] Commercial […]®, Berlex Laboratories, Wayne N.J.) ranging from 50-400 μM was added to 0.07 mL of canine serum. The canine serum was added to the arsenazo III reagent in varying amounts. […] This is obtained by subtracting the absorbance of each solution at 750 nm from its absorbance at 654 nm, reducing interference from wavelength-independent absorbance due to sample turbidity."}},
  "note": "Where a SMILES comes first, the peptide text is derived from it.",
  "data": [
    {"smiles": "NCC(=O)NCC(=O)O", "note": "[Diglycine] (H-Gly-Gly-OH)", "values": [
      {"measurement": "Acid pKa", "setting": "[1]", "result": 3.14}
    ]},
    {"smiles": "Cc1c(O)c(=O)ccn1C", "note": "[HDMP, 3-hydroxy-1,2-dimethyl-4(1H)-pyridone]", "values": [
      {"measurement": "calcium masked", "setting": "[2]; 70 mM HDMP in reagent", "result": 87, "unit": "%"},
      {"measurement": "reduction in calcium interference", "setting": "[2]; optimal amount of HDMP, pH 2.4", "result": "greater than 90%"},
      {"measurement": "ferric ion masked", "setting": "[3]", "result": "greater than 95%"},
      {"measurement": "reduction in gadolinium signal", "setting": "[4]", "result": "less than 10%"}
    ]},
    {"smiles": "O=C1CC(=O)NC(=O)N1", "note": "[Barbituric acid]", "values": [
      {"measurement": "Acid pKa", "setting": "[1]", "result": 4.04}
    ]}
  ]
}
